Results: patent US6355799B1, “Substituted benzene compounds, process for their preparation, and herbicidal and defoliant compositions containing them” (ISK Americas Incorporated, priority 1997, dated 2002)

Columns and labels:
Format in all cases: in vivo
[1] = system: field corn (Zea mays L., var. Dekalb 535, CORN); assay: Pre-emerge test, crop safety; settings: pre-emerge, 14 days after application, rating scale 0-100
Procedure, shortened: (§1)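 Applied at 15–1000 g ai/ha from acetone in 187 l/ha spray volume. Post-emergence applications included 0.25% v/v non-ionic surfactant and reached plants sown 8–21 days before. Pre-emergence applications were incorporated by surface watering. Efficacy or crop damage was rated on a 0–100 scale after 14 days.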

[2] = system: upland rice (Oryza sp., var. Tebonnet, RICE); assay: Pre-emerge test, crop safety; settings: pre-emerge, 14 days after application, rating scale 0-100
Procedure, shortened: as §1

[3] = system: velvetleaf (Abutilon theophrasti, ABUTH); assay: Pre-emerge test, greenhouse herbicide activity screening; settings: pre-emerge, 14 days after application, rating scale 0-100
Procedure, shortened: (§2)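 Compounds in acetone were track-sprayed at 187 l/ha, 15–1000 g ai/ha, onto sandy loam pots. Pre-emerge seeds were sown one day before spraying, with surface watering afterwards. Post-emerge plants were at the 2–3 leaf stage and sprayed with 0.25% v/v non-ionic surfactant. Injury was rated 0–100 at 14 days.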

[4] = system: sicklepod (Cassia obtusifolia, CASOB); assay: as above; settings: pre-emerge, 14 days after application, rating scale 0-100
Procedure, shortened: as §2

[5] = system: johnsongrass (Sorghum halepense, SORHA); assay: as above; settings: pre-emerge, 14 days after application, rating scale 0-100
Procedure, shortened: as §2

[6] = system: barnyardgrass (Echinochloa crus-galli, ECHCG); assay: as above; settings: pre-emerge, 14 days after application, rating scale 0-100
Procedure, shortened: as §2

[7] = system: green foxtail (Setaria viridis, SETVI); assay: as above; settings: pre-emerge, 14 days after application, rating scale 0-100
Procedure, shortened: as §2

[8] = system: ivyleaf morningglory (Ipomoea hederacea, IPOHE); assay: as above; settings: pre-emerge, 14 days after application, rating scale 0-100
Procedure, shortened: as §2

[9] = system: large crabgrass (Digitaria sanguinalis, DIGSA); assay: as above; settings: pre-emerge, 14 days after application, rating scale 0-100
Procedure, shortened: as §2

[10] = system: lambsquarters (Chenopodium album, CHEAL); assay: as above; settings: pre-emerge, 14 days after application, rating scale 0-100
Procedure, shortened: as §2

[11] = system: redroot pigweed (Amaranthus retroflexus, AMARE); assay: as above; settings: pre-emerge, 14 days after application, rating scale 0-100
Procedure, shortened: as §2

[12] = system: velvetleaf (Abutilon theophrasti, ABUTH); assay: Post-emerge test, greenhouse herbicide activity screening; settings: post-emerge, 14 days after application, rating scale 0-100
Procedure, shortened: as §2

[13] = system: redroot pigweed (Amaranthus retroflexus, AMARE); assay: as above; settings: post-emerge, 14 days after application
Procedure, shortened: as §2

[14] = system: sicklepod (Cassia obtusifolia, CASOB); assay: as above; settings: post-emerge, 14 days after application, rating scale 0-100
Procedure, shortened: as §2

[15] = system: johnsongrass (Sorghum halepense, SORHA); assay: as above; settings: post-emerge, 14 days after application, rating scale 0-100
Procedure, shortened: as §2

[16] = system: barnyardgrass (Echinochloa crus-galli, ECHCG); assay: as above; settings: post-emerge, 14 days after application, rating scale 0-100
Procedure, shortened: as §2

[17] = system: green foxtail (Setaria viridis, SETVI); assay: as above; settings: post-emerge, 14 days after application, rating scale 0-100
Procedure, shortened: as §2

[18] = system: ivyleaf morningglory (Ipomoea hederacea, IPOHE); assay: as above; settings: post-emerge, 14 days after application, rating scale 0-100
Procedure, shortened: as §2

[19] = system: large crabgrass (Digitaria sanguinalis, DIGSA); assay: as above; settings: post-emerge, 14 days after application, rating scale 0-100
Procedure, shortened: as §2

[20] = system: field corn (Zea mays L., var. Dekalb 535, CORN); assay: Post-emerge test, crop safety; settings: post-emerge, 14 days after application, rating scale 0-100
Procedure, shortened: as §2

[21] = system: upland rice (Oryza sp., var. Tebonnet, RICE); assay: Post-emerge test, crop safety; settings: post-emerge, 14 days after application, rating scale 0-100
Procedure, shortened: as §2

[22] = 63 g ai/ha, rating scale 0-100 (0 no damage, 100 complete death)
[23] = 250 g ai/ha, rating scale 0-100

COc1c(Cl)cc(F)c(-n2c(=O)cc(C(F)(F)F)n(C)c2=O)c1NN=CC(C)c1ccccc1 (stereo not drawn) [15-17]
40: Post-emerge Herbicidal Activity SETVI (phytotoxicity rating) ([17]; 63 g ai/ha) | Post-emerge Herbicidal Activity DIGSA (phytotoxicity rating) ([19]; 63 g ai/ha)
75: Post-emerge Herbicidal Activity RICE (crop damage rating) ([21]; 63 g ai/ha)
20: Post-emerge Herbicidal Activity SORHA (phytotoxicity rating) ([15]; 63 g ai/ha)
50: Post-emerge Herbicidal Activity ECHCG (phytotoxicity rating) ([16]; 63 g ai/ha)
99: Post-emerge Herbicidal Activity ECHCG (phytotoxicity rating) ([16]; 250 g ai/ha) | Post-emerge Herbicidal Activity DIGSA (phytotoxicity rating) ([19]; 250 g ai/ha)
80: phytotoxicity rating CORN ([1]; 63 g ai/ha) | Post-emerge Herbicidal Activity CASOB (phytotoxicity rating) ([14]; 63 g ai/ha) | Post-emerge Herbicidal Activity CORN (crop damage rating) ([20]; 250 g ai/ha)
95: phytotoxicity rating CORN ([1]; 250 g ai/ha) | Post-emerge Herbicidal Activity SORHA (phytotoxicity rating) ([15]; 250 g ai/ha)
90: Post-emerge Herbicidal Activity AMARE (phytotoxicity rating) [13, 22] | Post-emerge Herbicidal Activity SETVI (phytotoxicity rating) ([17]; 250 g ai/ha) | Post-emerge Herbicidal Activity RICE (crop damage rating) ([21]; 250 g ai/ha)
35: Post-emerge Herbicidal Activity CORN (crop damage rating) ([20]; 63 g ai/ha)
100: phytotoxicity rating RICE ([2]; 63 g ai/ha) | phytotoxicity rating RICE ([2]; 250 g ai/ha) | phytotoxicity rating ABUTH ([3]; 63 g ai/ha) | phytotoxicity rating ABUTH ([3]; 250 g ai/ha) | phytotoxicity rating CASOB ([4]; 63 g ai/ha) | phytotoxicity rating CASOB ([4]; 250 g ai/ha) | phytotoxicity rating SORHA ([5]; 63 g ai/ha) | phytotoxicity rating SORHA ([5]; 250 g ai/ha) | phytotoxicity rating ECHCG ([6]; 63 g ai/ha) | phytotoxicity rating ECHCG ([6]; 250 g ai/ha) | phytotoxicity rating SETVI ([7]; 63 g ai/ha) | phytotoxicity rating SETVI ([7]; 250 g ai/ha) | phytotoxicity rating IPOHE ([8]; 63 g ai/ha) | phytotoxicity rating IPOHE ([8]; 250 g ai/ha) | phytotoxicity rating DIGSA ([9]; 63 g ai/ha) | phytotoxicity rating DIGSA ([9]; 250 g ai/ha) | phytotoxicity rating CHEAL ([10]; 63 g ai/ha) | phytotoxicity rating CHEAL ([10]; 250 g ai/ha) | phytotoxicity rating AMARE ([11]; 63 g ai/ha) | phytotoxicity rating AMARE ([11]; 250 g ai/ha) | Post-emerge Herbicidal Activity ABUTH (phytotoxicity rating) ([12]; 63 g ai/ha) | Post-emerge Herbicidal Activity ABUTH (phytotoxicity rating) ([12]; 250 g ai/ha) | Post-emerge Herbicidal Activity AMARE (phytotoxicity rating) [13, 23] | Post-emerge Herbicidal Activity CASOB (phytotoxicity rating) ([14]; 250 g ai/ha) | Post-emerge Herbicidal Activity IPOHE (phytotoxicity rating) ([18]; 63 g ai/ha) | Post-emerge Herbicidal Activity IPOHE (phytotoxicity rating) ([18]; 250 g ai/ha)

COc1c(Cl)cc(F)c(-n2c(=O)cc(C(F)(F)F)n(C)c2=O)c1NNC(=O)C1CC1 [Compound 15-2, 3-[4-chloro-2-(2-cycopropanecarbonyldiazanyl)-6-fluoro-3-methoxyphenyl]-1-methyl-6-trifluoromethyl-2,4(1H, 3H)-pyrimidinedione]
90: Post-emerge Herbicidal Activity ECHCG (phytotoxicity rating) ([16]; 250 g ai/ha) | Post-emerge Herbicidal Activity IPOHE (phytotoxicity rating) ([18]; 63 g ai/ha)
95: Post-emerge Herbicidal Activity AMARE (phytotoxicity rating) [13, 23]
50: Post-emerge Herbicidal Activity RICE (crop damage rating) ([21]; 63 g ai/ha)
100: phytotoxicity rating CORN ([1]; 250 g ai/ha) | phytotoxicity rating RICE ([2]; 250 g ai/ha) | phytotoxicity rating ABUTH ([3]; 63 g ai/ha) | phytotoxicity rating ABUTH ([3]; 250 g ai/ha) | phytotoxicity rating CASOB ([4]; 63 g ai/ha) | phytotoxicity rating CASOB ([4]; 250 g ai/ha) | phytotoxicity rating SORHA ([5]; 63 g ai/ha) | phytotoxicity rating SORHA ([5]; 250 g ai/ha) | phytotoxicity rating ECHCG ([6]; 63 g ai/ha) | phytotoxicity rating ECHCG ([6]; 250 g ai/ha) | phytotoxicity rating SETVI ([7]; 63 g ai/ha) | phytotoxicity rating SETVI ([7]; 250 g ai/ha) | phytotoxicity rating IPOHE ([8]; 250 g ai/ha) | phytotoxicity rating DIGSA ([9]; 63 g ai/ha) | phytotoxicity rating DIGSA ([9]; 250 g ai/ha) | phytotoxicity rating CHEAL ([10]; 63 g ai/ha) | phytotoxicity rating CHEAL ([10]; 250 g ai/ha) | phytotoxicity rating AMARE ([11]; 63 g ai/ha) | phytotoxicity rating AMARE ([11]; 250 g ai/ha) | Post-emerge Herbicidal Activity ABUTH (phytotoxicity rating) ([12]; 250 g ai/ha) | Post-emerge Herbicidal Activity IPOHE (phytotoxicity rating) ([18]; 250 g ai/ha)
75: Post-emerge Herbicidal Activity CASOB (phytotoxicity rating) ([14]; 250 g ai/ha) | Post-emerge Herbicidal Activity RICE (crop damage rating) ([21]; 250 g ai/ha)
0: Post-emerge Herbicidal Activity SORHA (phytotoxicity rating) ([15]; 63 g ai/ha) | Post-emerge Herbicidal Activity ECHCG (phytotoxicity rating) ([16]; 63 g ai/ha) | Post-emerge Herbicidal Activity SETVI (phytotoxicity rating) ([17]; 63 g ai/ha) | Post-emerge Herbicidal Activity DIGSA (phytotoxicity rating) ([19]; 63 g ai/ha)
10: phytotoxicity rating IPOHE ([8]; 63 g ai/ha) | Post-emerge Herbicidal Activity CASOB (phytotoxicity rating) ([14]; 63 g ai/ha)
15: Post-emerge Herbicidal Activity CORN (crop damage rating) ([20]; 63 g ai/ha)
99: phytotoxicity rating RICE ([2]; 63 g ai/ha)
70: Post-emerge Herbicidal Activity SORHA (phytotoxicity rating) ([15]; 250 g ai/ha)
80: phytotoxicity rating CORN ([1]; 63 g ai/ha) | Post-emerge Herbicidal Activity ABUTH (phytotoxicity rating) ([12]; 63 g ai/ha) | Post-emerge Herbicidal Activity SETVI (phytotoxicity rating) ([17]; 250 g ai/ha) | Post-emerge Herbicidal Activity DIGSA (phytotoxicity rating) ([19]; 250 g ai/ha) | Post-emerge Herbicidal Activity CORN (crop damage rating) ([20]; 250 g ai/ha)
20: Post-emerge Herbicidal Activity AMARE (phytotoxicity rating) [13, 22]
